In brackets after ≈: the same amount, converted by molar mass. Like-named read-outs stand apart in the source and are kept apart here.
Columns and labels:
MRSA = assay: Membrane permeability, propidium iodide staining; type: cell-based, methicillin-resistant S. aureus; conditions: Gram-positive MRSA; MIC concentration, 1 hour
Description: (§1) For assessing membrane permeability, PI (Invitrogen, Eugene, Oregon, USA) served as the fluorescent reporter dye. Increased PI fluorescence readings are indicative of heightened membrane disruption and permeability, as PI can penetrate cells, bind to DNA, and remain within the cells ([29], [30]). Bacteria were cultured in 3 mL of Mueller-Hinton broth (MHB) and incubated at 37°C for approximately 3 hours in a shaker incubator (150 rpm) until reaching an OD600 (optical density) of 0.08. […] All treated and control groups were incubated at 37°C for 1 hour in a shaker incubator (150 rpm). Ciprofloxacin and gentamycin were employed as internal controls, as they are known not to target the bacterial cell membrane in the initial steps. After incubation, the samples were centrifuged, washed with PBS (10,000 × g for 2 minutes), and bacteria were stained with 0.08 mM PI for 5 minutes at 21°C in the dark. Subsequently, 10 µL of samples were transferred onto slides and examined under a fluorescence microscope (Zeiss Axio Imager Z1) using the same exposure time (640 ms red and 1 s green). Densitometry analysis was conducted using Fiji software (ImageJ).

P. aeruginosa = assay: Membrane permeability, propidium iodide staining; type: cell-based, Pseudomonas aeruginosa; conditions: Gram-negative P. aeruginosa; MIC concentration, 1 hour
Description: as §1

MRSA ATCC 33591 = assay: Planktonic susceptibility (MIC/MBC), 96-well broth microdilution; type: cell-based, methicillin-resistant S. aureus; conditions: for antibacterial efficacy (in words): MRSA spp.; for MBC / MIC: Staphylococcus aureus, MRSA reference strain; for MIC: planktonic, overnight 37°C in MHB
Description: (§2) All bacterial strains subjected to testing had been stored at −70°C prior to the experiment. The experiment commenced by streaking small amounts of the frozen bacterial samples onto Muller-Hinton agar (MHA) culture medium (BD Bacto, Oxoid, Basingstoke, UK Cat# X296B) and allowing for overnight incubation. Bacteria were re-cultured on MHA plates as required to confirm colony morphology and lack of contamination. Strains tested were P. aeruginosa ATCC 27853, E. coli ATCC 25922, Staphylococcus aureus ATCC 25923, MRSA ATCC 33591, S. epidermidis ATCC 12228, Klebsiella pneumoniae ATCC, P. mirabilis ATCC 35659, and 10 clinical isolates of MRSA from Foothills Hospital, Calgary, Canada. To prepare for susceptibility testing, a protocol modified from Lemire et al was used ([28]). MHB was swab-inoculated from MHA colonies and shake-incubated until turbid. Dilution of the broth with 0.9% saline was performed as necessary to match a 1.0 McFarland standard.
MIC and MBC assessments were conducted on all bacterial strains using 96-well microtiter plates. To prepare the wells for bacteria, serial dilutions of the antibacterial agents were carried out along the rows of two microtiter plates. The antibacterials were 2-fold diluted with Mueller-Hinton broth (MHB) in each column, reaching a volume of 75 µL. The 1.0 McFarland standard was diluted 15-fold in MHB, and 75 µL of inoculum was added to the wells treated with antibacterials, resulting in a total volume of 150 µL. The microtiter plates were covered and then shake-incubated overnight at 150 rpm and 37°C. MIC was determined based on visible bacterial growth. […] MBC was determined by transferring 3 µL of culture from all MIC microtiter plate wells to 147 µL of Mueller-Hinton broth in fresh plates. These plates were shake-incubated overnight at 150 rpm and 37°C, and bacterial growth was visually inspected.

MDCK cells = assay: Eukaryotic cell toxicity, MTS assay (CC50); type: cell-based, canine; conditions: for cytotoxicity level lower than that of EPB-34: MDCK cells; for CC50: MTS assay, 4 days, mean of 2 or 3 determinations, read-out: MDCK (CC50) in vitro cytotoxicity
Description: (§3) Five eukaryotic cell lines were used to determine the cytotoxicity of the compounds: human embryonic lung (HEL) fibroblast cells, human cervixcarinoma-derived HeLa cells, human T-cell leukemia-derived MT4 cells, MDCK cells, and African Green monkey kidney-derived VERO cells. Semi-confluent cell cultures in 96-well plates were exposed to serial dilutions of the compounds or to medium (= no compound control), then incubated at 37°C. Four days later, the cells were inspected by microscopy to determine the MCC, that is, compound concentration that causes a microscopically detectable alteration of normal cell morphology. Next, the MTS cell viability reagent (CellTiter 96 AQueous MTS Reagent from Promega) was added. After 4 hours of incubation at 37°C, OD at 490 nm was recorded in a microplate reader.

[1] = Eukaryotic cell toxicity, MTS assay (CC50); type: cell-based, canine; conditions: dog, MDCK cells, MTS assay, 4 days; mean of 2 or 3 determinations; read-out: MDCK (CC50) in vitro cytotoxicity
Description: as §3

[2] = tested on: S. epidermidis ATCC 12228; assay: Planktonic susceptibility (MIC/MBC), 96-well broth microdilution; type: cell-based, Staphylococcus epidermidis; conditions: for MBC / MIC: Staphylococcus epidermidis; for MBC: ATCC12228; for MIC: ATCC12228, planktonic, overnight 37°C in MHB
Description: as §2
MIC and MBC assessments were conducted on all bacterial strains using 96-well microtiter plates. To prepare the wells for bacteria, serial dilutions of the antibacterial agents were carried out along the rows of two microtiter plates. The antibacterials were 2-fold diluted with Mueller-Hinton broth (MHB) in each column, reaching a volume of 75 µL. The 1.0 McFarland standard was diluted 15-fold in MHB, and 75 µL of inoculum was added to the wells treated with antibacterials, resulting in a total volume of 150 µL. The microtiter plates were covered and then shake-incubated overnight at 150 rpm and 37°C. MIC was determined based on visible bacterial growth. In cases of antibacterial opacity or ambiguous results, streaking of well cultures on MHA, overnight incubation, and subsequent comparison with controls were performed. MBC was determined by transferring 3 µL of culture from all MIC microtiter plate wells to 147 µL of Mueller-Hinton broth in fresh plates. These plates were shake-incubated overnight at 150 rpm and 37°C, and bacterial growth was visually inspected.

HeLa cells = assay: Eukaryotic cell toxicity, microscopy (MCC); type: cell-based, Human; conditions: minimum concentration causing microscopically detectable alteration of cell morphology; 4 days
Description: as §3

HEL cells = assay: Eukaryotic cell toxicity, microscopy (MCC); type: cell-based, Human; conditions: minimum concentration causing microscopically detectable alteration of cell morphology; 4 days
Description: as §3

MT4 cells = assay: Eukaryotic cell toxicity; type: cell-based, Human; conditions: 4 days
Description: as §3

[3] = Eukaryotic cell toxicity, MTS assay (CC50); type: cell-based; conditions: African green monkey, Vero cells, mean of 2 or 3 determinations, read-out: Vero (CC50) in vitro cytotoxicity
Description: as §3

SMILES | cell membrane disruption (PI staining) (MRSA) | effect on cell membrane (PI staining) (P. aeruginosa) | antibacterial efficacy (in words) (MRSA ATCC 33591) | MBC (MRSA ATCC 33591) | MIC (MRSA ATCC 33591) | cytotoxicity level lower than that of EPB-34 (MDCK cells) | CC50 (MDCK cells) | CC50 at 4 days [1] | antibacterial efficacy (in words) [2] | MBC [2] | MIC [2] | HeLa (MCC) in vitro cytotoxicity (HeLa cells) | HEL (MCC) in vitro cytotoxicity (HEL cells) | MT4 (MCC) in vitro cytotoxicity (MT4 cells) | CC50 at 4 days [3] | CC50 (MDCK cells; listed as EBP-61)
O=C(Nc1ccc(S(F)(F)(F)(F)F)cc1)Nc1ccc(Cl)c(Cl)c1 [EBP-59] | effective at cell membrane disruption | no effect | effective | 20 µM (≈ 8.14 µg/mL) | 2.4 µM (≈ 0.977 µg/mL) | 2 logs | > 100 µM | ≥ 100 µM | effective | 10 µM (≈ 4.07 µg/mL) | 4 µM (≈ 1.63 µg/mL) | 4 µM | >4 µM | 3.9 µM | > 4 µM | –
O=C(Nc1ccc(Cl)cc1)Nc1cccc(S(F)(F)(F)(F)F)c1 [EBP-62, 1-(4-chlorophenyl)-3-(3-(pentafluoro-λ^6-sulfanyl)phenyl)urea] | – | – | effective | 76 µM (≈ 28.3 µg/mL) | 38 µM (≈ 14.2 µg/mL) | – | – | 100 µM | effective | 100 µM (≈ 37.3 µg/mL) | 20 µM (≈ 7.45 µg/mL) | >4 µM | 20 µM | 4.7 µM | > 4 µM | –
O=C(Nc1ccc(Cl)cc1)Nc1ccc(S(F)(F)(F)(F)F)cc1 [EPB-61, 1-(4-Chlorophenyl)-3-(4-(pentafluoro-λ^6-sulfanyl)phenyl)urea] | effective at cell membrane disruption | no effect | effective | 300 µM (≈ 112 µg/mL) | 160 µM (≈ 59.6 µg/mL) | 2 logs | – | ≥ 100 µM | effective | 40 µM (≈ 14.9 µg/mL) | 1 µM (≈ 0.373 µg/mL) | 4 µM | >4 µM | 2.8 µM | > 4 µM | > 100 µM
